Experimental data published in patent US10597388B2, “Pyridazinone herbicides” (FMC CORPORATION, priority 2014, dated 2020).

Assays:
Assay in all cases: Test C greenhouse herbicide test, pre- and postemergence
Assay type in all cases: in vivo
[1] = tested on: galium (catchweed bedstraw, Galium aparine)
Method in brief: (§1)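 Pre- and postemergence greenhouse screen; values are visual control ratings, 0 meaning no effect and 100 complete kill, assigned relative to untreated plants after 13 to 15 d.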

[2] = tested on: lambsquarters (Chenopodium album)
Method in brief: as §1

[3] = tested on: johnsongrass (Sorghum halepense)
Method in brief: as §1

[4] = tested on: crabgrass, large (large crabgrass, Digitaria sanguinalis)
Method in brief: as §1

[5] = tested on: waterhemp (common waterhemp, Amaranthus rudis)
Method in brief: as §1

[6] = tested on: nutsedge, yellow (yellow nutsedge, Cyperus esculentus); settings: Preemergence; for Plant response rating, Nutsedge, Yellow: scale 0 to 100, 0 is no effect, 100 is complete control
Method in brief: as §1

[7] = tested on: morningglory (Ipomoea coccinea)
Method in brief: as §1

[8] = tested on: wheat (winter wheat, Triticum aestivum)
Method in brief: as §1

[9] = tested on: pigweed (Amaranthus retroflexus)
Method in brief: as §1

[10] = tested on: blackgrass (Alopecurus myosuroides)
Method in brief: as §1

soybean (Glycine max) = tested on: soybean (Glycine max)
Method in brief: as §1

[11] = tested on: foxtail, giant (giant foxtail, Setaria faberii)
Method in brief: as §1

corn (Zea mays) = tested on: corn (Zea mays)
Method in brief: as §1

[12] = tested on: ryegrass, Italian (Italian ryegrass, Lolium multiflorum)
Method in brief: as §1

[13] = tested on: oilseed rape (Brassica napus)
Method in brief: as §1

[14] = tested on: velvetleaf (Abutilon theophrasti)
Method in brief: as §1

[15] = Postemergence, 31 g ai/ha, 0 to 100 scale (0 no effect, 100 complete control)
[16] = Postemergence, 125 g ai/ha, scale 0 to 100, 0 is no effect, 100 is complete control
[17] = Postemergence, 250 g ai/ha, scale 0 to 100, 0 no effect, 100 complete control, 13 to 15 d
[18] = Preemergence, 31 g ai/ha, scale 0 to 100, 0 is no effect, 100 is complete control
[19] = Preemergence, 62 g ai/ha, scale 0 to 100, 0 is no effect, 100 is complete control
[20] = Preemergence, 125 g ai/ha, scale 0 to 100, 0 is no effect, 100 is complete control
[21] = Preemergence, 250 g ai/ha, scale 0 to 100 (0 no effect, 100 complete control)
[22] = postemergence, 62 g ai/ha, scale 0 to 100, 0 no effect, 100 complete control

For `Cc1ccc2sc(C)c(-c3c(O)c(C)nn(C)c3=O)c2c1` [Compound 1, 4-(2,5-dimethylbenzo[b]thien-3-yl)-5-hydroxy-2,6-dimethyl-3(2H)-pyridazinone], the “Galium plant response rating” value [1, 15] was 90, the “Plant response rating, Galium” value [1, 16] was 95 and the “Plant response rating, Galium” value [1, 17] was 95. For the same compound, the “Plant response rating, Galium” value [1, 18] was 90, the “Plant response rating, Galium” value [1, 19] was 100 and the “Plant response rating, Galium” value [1, 20] was 95. The “Galium plant response rating” value [1, 21] was 100, the “Galium plant response rating” value [1, 22] was 95 and the “Lambsquarters plant response rating” value [2, 15] was 85. The “Plant response rating, Lambsquarters” value [2, 16] was 100, the “Plant response rating, Lambsquarters” value [2, 17] was 100 and the “Plant response rating, Lambsquarters” value [2, 18] was 80. For the same compound, the “Plant response rating, Lambsquarters” value [2, 19] was 95, the “Plant response rating, Lambsquarters” value [2, 20] was 100 and the “Lambsquarters plant response rating” value [2, 21] was 100. For the same compound, the “Lambsquarters plant response rating” value [2, 22] was 100, the “Johnsongrass plant response rating” value [3, 15] was 0 and the “Plant response rating, Johnsongrass” value [3, 16] was 0. The “Plant response rating, Johnsongrass” value [3, 17] was 15, the “Plant response rating, Johnsongrass” value [3, 18] was 0 and the “Plant response rating, Johnsongrass” value [3, 19] was 5. For the same compound, the “Plant response rating, Johnsongrass” value [3, 20] was 5, the “Johnsongrass plant response rating” value [3, 21] was 5 and the “Johnsongrass plant response rating” value [3, 22] was 0. For the same compound, the “Crabgrass, Large plant response rating” value [4, 15] was 20, the “Plant response rating, Crabgrass, Large” value [4, 16] was 25 and the “Plant response rating, Crabgrass, Large” value [4, 17] was 35. For the same compound, the “Plant response rating, Crabgrass, Large” value [4, 18] was 35, the “Plant response rating, Crabgrass, Large” value [4, 19] was 40 and the “Plant response rating, Crabgrass, Large” value [4, 20] was 80. The “Crabgrass, Large plant response rating” value [4, 21] was 100, the “Crabgrass, Large plant response rating” value [4, 22] was 10 and the “Waterhemp plant response rating” value [5, 15] was 95. For the same compound, the “Plant response rating, Waterhemp” value [5, 16] was 100, the “Plant response rating, Waterhemp” value [5, 17] was 100 and the “Plant response rating, Waterhemp” value [5, 19] was 100. For the same compound, the “Plant response rating, Waterhemp” value [5, 20] was 100, the “Waterhemp plant response rating” value [5, 21] was 100 and the “Waterhemp plant response rating” value [5, 22] was 95. For the same compound, the “Plant response rating, Nutsedge, Yellow” value ([6]; 31 g ai/ha) was 40, the “Plant response rating, Nutsedge, Yellow” value ([6]; 62 g ai/ha) was 35 and the “Plant response rating, Nutsedge, Yellow” value ([6]; 125 g ai/ha) was 70. The “Nutsedge, Yellow plant response rating” value ([6]; 250 g ai/ha, scale 0 to 100 (0 no effect, 100 complete control)) was 75, the “Morningglory plant response rating” value [7, 15] was 100 and the “Plant response rating, Morningglory” value [7, 16] was 100. The “Plant response rating, Morningglory” value [7, 17] was 100, the “Plant response rating, Morningglory” value [7, 18] was 95 and the “Plant response rating, Morningglory” value [7, 19] was 100. The “Plant response rating, Morningglory” value [7, 20] was 100, the “Morningglory plant response rating” value [7, 21] was 100 and the “Morningglory plant response rating” value [7, 22] was 100. For the same compound, the “Wheat plant response rating” value [8, 15] was 0, the “Plant response rating, Wheat” value [8, 16] was 10 and the “Plant response rating, Wheat” value [8, 17] was 15. The “Plant response rating, Wheat” value [8, 19] was 0, the “Plant response rating, Wheat” value [8, 20] was 5 and the “Wheat plant response rating” value [8, 21] was 20. For the same compound, the “Wheat plant response rating” value [8, 22] was 0, the “Pigweed plant response rating” value [9, 15] was 95 and the “Plant response rating, Pigweed” value [9, 16] was 98. For the same compound, the “Plant response rating, Pigweed” value [9, 17] was 100, the “Plant response rating, Pigweed” value [9, 18] was 100 and the “Plant response rating, Pigweed” value [9, 19] was 100. For the same compound, the “Plant response rating, Pigweed” value [9, 20] was 100, the “Pigweed plant response rating” value [9, 21] was 100 and the “Pigweed plant response rating” value [9, 22] was 95. The “Blackgrass plant response rating” value [10, 15] was 20, the “Plant response rating, Blackgrass” value [10, 16] was 60 and the “Plant response rating, Blackgrass” value [10, 17] was 75. The “Plant response rating, Blackgrass” value [10, 18] was 60, the “Plant response rating, Blackgrass” value [10, 19] was 90 and the “Plant response rating, Blackgrass” value [10, 20] was 90. The “Blackgrass plant response rating” value [10, 21] was 90, the “Blackgrass plant response rating” value [10, 22] was 50 and the “Soybean plant response rating” value (soybean (Glycine max); [15]) was 0. The “Plant response rating, Soybean” value (soybean (Glycine max); [16]) was 5, the “Plant response rating, Soybean” value (soybean (Glycine max); [17]) was 5 and the “Plant response rating, Soybean” value (soybean (Glycine max); [19]) was 0. For the same compound, the “Plant response rating, Soybean” value (soybean (Glycine max); [20]) was 0, the “Soybean plant response rating” value (soybean (Glycine max); [21]) was 0 and the “Soybean plant response rating” value (soybean (Glycine max); [22]) was 0. For the same compound, the “Foxtail, Giant plant response rating” value [11, 15] was 35, the “Plant response rating, Foxtail, Giant” value [11, 16] was 60 and the “Plant response rating, Foxtail, Giant” value [11, 17] was 90. For the same compound, the “Plant response rating, Foxtail, Giant” value [11, 18] was 55, the “Plant response rating, Foxtail, Giant” value [11, 19] was 75 and the “Plant response rating, Foxtail, Giant” value [11, 20] was 100. For the same compound, the “Foxtail, Giant plant response rating” value [11, 21] was 100, the “Foxtail, Giant plant response rating” value [11, 22] was 15 and the “Corn plant response rating” value (corn (Zea mays); [15]) was 0. The “Plant response rating, Corn” value (corn (Zea mays); [16]) was 5, the “Plant response rating, Corn” value (corn (Zea mays); [17]) was 40 and the “Plant response rating, Corn” value (corn (Zea mays); [18]) was 0. For the same compound, the “Plant response rating, Corn” value (corn (Zea mays); [19]) was 0, the “Plant response rating, Corn” value (corn (Zea mays); [20]) was 0 and the “Corn plant response rating” value (corn (Zea mays); [21]) was 5. For the same compound, the “Corn plant response rating” value (corn (Zea mays); [22]) was 25, the “Ryegrass, Italian plant response rating” value [12, 15] was 80 and the “Plant response rating, Ryegrass, Italian” value [12, 16] was 95. For the same compound, the “Plant response rating, Ryegrass, Italian” value [12, 17] was 98, the “Plant response rating, Ryegrass, Italian” value [12, 18] was 95 and the “Plant response rating, Ryegrass, Italian” value [12, 19] was 100. The “Plant response rating, Ryegrass, Italian” value [12, 20] was 100, the “Ryegrass, Italian plant response rating” value [12, 21] was 100 and the “Ryegrass, Italian plant response rating” value [12, 22] was 90. For the same compound, the “Oilseed Rape plant response rating” value [13, 15] was 0, the “Plant response rating, Oilseed Rape” value [13, 16] was 5 and the “Plant response rating, Oilseed Rape” value [13, 17] was 40. The “Plant response rating, Oilseed Rape” value [13, 18] was 0, the “Plant response rating, Oilseed Rape” value [13, 19] was 5 and the “Oilseed Rape plant response rating” value [13, 21] was 20. For the same compound, the “Oilseed Rape plant response rating” value [13, 22] was 0, the “Velvetleaf plant response rating” value [14, 15] was 80 and the “Plant response rating, Velvetleaf” value [14, 16] was 95. For the same compound, the “Plant response rating, Velvetleaf” value [14, 17] was 100, the “Plant response rating, Velvetleaf” value [14, 19] was 90 and the “Plant response rating, Velvetleaf” value [14, 20] was 100. The “Velvetleaf plant response rating” value [14, 21] was 98 and the “Velvetleaf plant response rating” value [14, 22] was 85.
